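In this assay, cells in 96-well plates receive the compound at five concentrations for 48 hours. Endpoints are linearly interpolated between the surrounding concentrations. The concentration for 50% growth inhibition is given as GI50. TGI marks complete inhibition of growth.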 Where only a bound is given, the exact number is not on record here.

Among the test systems are UO-31 renal; EKVX NSCLC; OVCAR-3 ovarian; SF-295 CNS; HCT-116 colon; OVCAR-8 ovarian; HCT-15 colon; LOX IMVI melanoma; SK-OV-3 ovarian.
What all share (test): NCI tumour cell line growth inhibition, 48 h

Take `Cc1cc(Cl)cc2c1NC(=O)C2(O)CC(=O)c1ccc(Br)cc1` (stereo not given): the TGI in the test with UO-31 renal, in the test on EKVX NSCLC, in the test on OVCAR-3 ovarian, with SF-295 CNS, with HCT-116 colon and in the test with OVCAR-8 ovarian was > 100 µM throughout. Further, the TGI with HCT-15 colon, in the test with LOX IMVI melanoma and in the test with SK-OV-3 ovarian was > 100 µM each time.

Regarding `CCCCNS(=O)(=O)c1ccc(-c2ccc3c(c2)-c2ccc(S(=O)(=O)NCCCC)cc2S3(=O)=O)cc1`, the TGI in the test on UO-31 renal was > 100 µM; with EKVX NSCLC, > 100 µM; with OVCAR-3 ovarian, 76.2 µM; in the test with SF-295 CNS, 45.1 µM; in the test with HCT-116 colon it was 54.9 µM; with OVCAR-8 ovarian, 24.9 µM. In addition, the TGI in the test with HCT-15 colon is > 100 µM; in the test on LOX IMVI melanoma, 38 µM; in the test on SK-OV-3 ovarian, 45.5 µM.

As to `CCOC(=O)[C@@]12C(C)=CC(=O)O[C@]1(C)C1C(=O)NC(=O)C12` (stereo not given in full), the TGI with UO-31 renal, in the test on EKVX NSCLC, in the test on OVCAR-3 ovarian, in the test with SF-295 CNS, with HCT-116 colon and in the test on OVCAR-8 ovarian was > 100 µM throughout. Moreover, the TGI with LOX IMVI melanoma and in the test on SK-OV-3 ovarian was > 100 µM in each case.

As to `O=C(O)c1c2c(cc3c(=O)c4ccccc4[nH]c13)CCCC2`, the TGI with UO-31 renal, in the test with EKVX NSCLC, in the test on OVCAR-3 ovarian, with SF-295 CNS, in the test on HCT-116 colon and in the test with OVCAR-8 ovarian was > 100 µM each time. For the same molecule, the TGI in the test with HCT-15 colon, with LOX IMVI melanoma and in the test on SK-OV-3 ovarian was > 100 µM each time.

Turning to `CCCCCCCC(=O)[O-].CCCCCCCC(=O)[O-].N.N.N.N.[Co+3].[O-][Cl+3]([O-])([O-])[O-]`, the GI50 with UO-31 renal, in the test with EKVX NSCLC, in the test with SF-295 CNS, in the test with OVCAR-8 ovarian, in the test with HCT-15 colon and with SK-OV-3 ovarian was > 100 µM each time. Moreover, the TGI with UO-31 renal, in the test with EKVX NSCLC, in the test on SF-295 CNS, with OVCAR-8 ovarian, with HCT-15 colon and in the test on SK-OV-3 ovarian was > 100 µM each time.

On to `CCc1ccc2oc(=O)ccc2c1`, for which the TGI with UO-31 renal, in the test on EKVX NSCLC, in the test on OVCAR-3 ovarian, with SF-295 CNS, in the test with HCT-116 colon and with OVCAR-8 ovarian was > 100 µM in each case. In addition, the TGI with HCT-15 colon and in the test on LOX IMVI melanoma was > 100 µM throughout.

With `Cc1ccc(N2C(=O)/C(=C/c3ccc(N(CCC#N)CCC#N)cc3)N=C2COc2ccc(Cl)cc2Cl)cc1`, the TGI in the test on UO-31 renal, in the test with EKVX NSCLC, in the test on OVCAR-3 ovarian, in the test with SF-295 CNS, in the test on HCT-116 colon and in the test with OVCAR-8 ovarian was > 100 µM throughout. The TGI with HCT-15 colon, with LOX IMVI melanoma and in the test with SK-OV-3 ovarian was > 100 µM each time.

In the case of `O=C1C(Cl)=C(Cl)C(=O)N1c1ccc(Cl)c(Cl)c1Cl`, the TGI in the test on UO-31 renal, in the test with EKVX NSCLC, in the test on OVCAR-3 ovarian, with SF-295 CNS, with HCT-116 colon and in the test on HCT-15 colon was > 100 µM throughout. In addition, the TGI in the test with LOX IMVI melanoma and in the test with SK-OV-3 ovarian was > 100 µM throughout.

`CCCC(O)c1cn(-c2cccc(S(=O)(=O)O)c2)nn1` (stereo not given): the TGI in the test on UO-31 renal, with EKVX NSCLC, in the test on OVCAR-3 ovarian, in the test on SF-295 CNS, in the test on HCT-116 colon and in the test with OVCAR-8 ovarian was > 100 µM throughout. The TGI in the test on HCT-15 colon, with LOX IMVI melanoma and in the test with SK-OV-3 ovarian was > 100 µM in each case.

As for `O=C1OC(=O)C23CSCC12C1C=CC3O1` (stereo not given), the TGI in the test with UO-31 renal, in the test on EKVX NSCLC, in the test with OVCAR-3 ovarian, in the test on SF-295 CNS, with HCT-116 colon and with OVCAR-8 ovarian was > 100 µM in each case. In addition, the TGI with HCT-15 colon, with LOX IMVI melanoma and with SK-OV-3 ovarian was > 100 µM throughout.

For `CC(=O)OCC1OC(n2c(=O)[nH]c(=O)c3n[nH]nc32)C(OC(C)=O)C(OC(C)=O)C1OC(C)=O` (stereo not given), the TGI with UO-31 renal, in the test with EKVX NSCLC, with SF-295 CNS, in the test on HCT-116 colon, in the test on OVCAR-8 ovarian and in the test with HCT-15 colon was > 100 µM in each case. The TGI with LOX IMVI melanoma and in the test with SK-OV-3 ovarian was > 100 µM in each case.

In the case of `COc1cc(Cc2c(C)cc(OC)c3[nH]c4ccccc4c23)cc2c1[nH]c1ccccc12`, the GI50 with UO-31 renal is 6.05 µM; in the test on HCT-116 colon, 9.18 µM; in the test on HCT-15 colon, 6.89 µM; in the test on LOX IMVI melanoma, 3.85 µM; with SK-OV-3 ovarian, 8.8 µM. Moreover, the TGI was 18.6 µM with UO-31 renal; 12.3 µM in the test with OVCAR-3 ovarian; > 25 µM with HCT-116 colon; 10.9 µM in the test with OVCAR-8 ovarian; > 25 µM in the test with HCT-15 colon; 8.6 µM with LOX IMVI melanoma. In the test with SK-OV-3 ovarian, the TGI is > 25 µM.

Turning to `COc1ccc(N2C(=O)[C@@H](N=[N+]=[N-])[C@@H]2[C@H]2COC(C)(C)O2)cc1`, the TGI in the test on UO-31 renal, in the test on EKVX NSCLC, in the test with OVCAR-3 ovarian, in the test on SF-295 CNS, with HCT-116 colon and in the test with OVCAR-8 ovarian was > 100 µM throughout. For the same molecule, the TGI in the test on HCT-15 colon and with SK-OV-3 ovarian was > 100 µM in each case.

Consider `CCOC(=O)c1sc2c(C(=O)OCC)n3cc(C)cc(C)c3c2c1O`, for which the TGI in the test on UO-31 renal was > 100 µM; in the test with EKVX NSCLC, 90 µM; in the test on OVCAR-3 ovarian it was > 100 µM; with SF-295 CNS, > 100 µM; in the test with HCT-116 colon, > 100 µM; in the test with OVCAR-8 ovarian it was > 100 µM. Further, the TGI with LOX IMVI melanoma and with SK-OV-3 ovarian was > 100 µM in each case.

Take `CCOC(=O)c1c(-c2ccccc2)[n+](=O)c2cc(F)c(F)cc2n1[O-]`: the GI50 was 1.73 µM with EKVX NSCLC; 1.23 µM in the test with OVCAR-3 ovarian; 2.08 µM with SF-295 CNS; 0.238 µM with HCT-116 colon; 2.06 µM in the test on OVCAR-8 ovarian; 0.215 µM with HCT-15 colon. Besides, the GI50 in the test on LOX IMVI melanoma is 0.157 µM; in the test with SK-OV-3 ovarian, 2.03 µM. Further, the TGI with EKVX NSCLC is 3.47 µM; in the test with OVCAR-3 ovarian, 2.61 µM; in the test with SF-295 CNS it was 3.84 µM; in the test with HCT-116 colon, 0.584 µM; with OVCAR-8 ovarian, 4.43 µM; in the test on HCT-15 colon, 0.441 µM. Further, the TGI in the test on LOX IMVI melanoma worked out at 0.298 µM; in the test with SK-OV-3 ovarian it was 3.57 µM.

For `O=c1c2ccccc2oc2ccccc12` (tested in a mixture with another compound), the TGI is > 100 µM with UO-31 renal; > 100 µM in the test on EKVX NSCLC; > 100 µM with OVCAR-3 ovarian; 53.3 µM in the test with SF-295 CNS; > 100 µM in the test with HCT-116 colon; > 100 µM in the test on OVCAR-8 ovarian. For the same molecule, the TGI in the test with LOX IMVI melanoma worked out at 17 µM; in the test on SK-OV-3 ovarian, 62.5 µM.

As for `COC(=O)C(=O)C(C(=O)C(=O)Nc1ccccc1[N+](=O)[O-])c1nc2ccc([N+](=O)[O-])cc2[nH]c1=O` (stereo not given), the TGI with UO-31 renal, in the test with EKVX NSCLC, in the test on SF-295 CNS, with HCT-116 colon, with OVCAR-8 ovarian and in the test with HCT-15 colon was > 100 µM in each case. Besides, the TGI in the test on LOX IMVI melanoma and in the test with SK-OV-3 ovarian was > 100 µM in each case.

`COc1cc2c(cc1OC)C(C(CBr)CBr)N(C1CCCC1)CC2` (stereo not given): the TGI in the test on UO-31 renal, in the test with EKVX NSCLC, in the test on OVCAR-3 ovarian, with SF-295 CNS, in the test on OVCAR-8 ovarian and in the test on HCT-15 colon was > 100 µM throughout. Besides, the TGI with LOX IMVI melanoma and in the test with SK-OV-3 ovarian was > 100 µM in each case.

For `CC(/C=C/C(=O)c1sc(C(N)=S)nc1C)=C\c1ccccc1`, the TGI in the test with UO-31 renal, in the test with EKVX NSCLC, in the test on OVCAR-3 ovarian, with SF-295 CNS, in the test with OVCAR-8 ovarian and in the test with HCT-15 colon was > 100 µM throughout. In addition, the TGI with LOX IMVI melanoma was 40.2 µM; in the test with SK-OV-3 ovarian it was > 100 µM.

As for `COc1ccc(-c2cc3ccccc3[nH]c2=O)cc1OC`, the TGI in the test on UO-31 renal, in the test on EKVX NSCLC, in the test on SF-295 CNS, in the test on HCT-116 colon, in the test with OVCAR-8 ovarian and in the test with HCT-15 colon was > 100 µM throughout. The TGI in the test on LOX IMVI melanoma and in the test on SK-OV-3 ovarian was > 100 µM in each case.

In the case of `Brc1cc(C2OCCCO2)ccc1OCc1ccccc1`, the TGI in the test on UO-31 renal, with EKVX NSCLC, in the test with OVCAR-3 ovarian, with SF-295 CNS, with OVCAR-8 ovarian and in the test with HCT-15 colon was > 100 µM each time. Moreover, the TGI in the test on LOX IMVI melanoma was 63.5 µM; in the test on SK-OV-3 ovarian, > 100 µM.

Values taken from PubChem BioAssay (NCI).
